Molecular target: T1, Recombinant human PDE4B (Homo sapiens, UniProt Q07343)
T1 construct: aa 305-end; GST (N); made in house; host or cells: Sf9 insect cells (baculovirus)
Assay: PDE4B Phosphodiesterase Assay
Format: biochemical
Design: key to Activity Note: PDE4: The (+) symbols identify a compound of the present disclosure with the noted target activity; +*: The (*) symbols indicate preferential activity, where the greater number identifies the most preferred compounds; +**: The (*) symbols indicate preferential activity, where the greater number identifies the most preferred compounds; +***: The (*) symbols indicate preferential activity, where the greater number identifies the most preferred compounds
Settings: compound list; + = noted target activity
Method: The assay is based on the fluorescence polarization measuring AMP/GMP production as a result of the enzyme activity by displacement of Tracer binding to the AMP/GMP antibody. • Reaction Buffer: 10 mM Tris-HCl, pH 7.5, 5 mM MgCl2, 0.01% Brij 35, 1 mM DTT and 1% DMSO. • Enzyme: Recombinant human PDE4B (Gene Accession #NM_002600; aa 305-end) was expressed by baculovirus in Sf9 insect cells using an N-terminal GST tag. Mw=78 kDa. • Substrate: 1 μM cAMP • Detection: Transcreener® AMP2/GMP2 Antibody AMP2/GMP2 AlexaFluor 633 Tracer Reaction Procedure: • 1. Prepared indicated enzyme and substrate in freshly prepared Reaction Buffer • 2. Delivered enzyme solution into the reaction well • 3. Delivered compounds in 100% DMSO into the enzyme solution by Acoustic technology (Echo550; nanoliter range), incubated for 10 min at room temperature • 4. Delivered substrate solution into the reaction well to initiate the reaction • 5. Incubated for 1 h at room temperature • 6. Added detection mixture (Tracer and antibody in the stop buffer) to stop the reaction and incubated for 90 min with gentle mixing. The fluorescence polarization was measured at Ex/Em 620/688.
Data Analysis: The FP signals were converted into nM product based on an AMP/GMP standard curve and calculated % Enzyme activity relative to DMSO control by Excel. The curve fit was performed using GraphPad prism.

T1 sequence (Q07343 305-736 limits assumed): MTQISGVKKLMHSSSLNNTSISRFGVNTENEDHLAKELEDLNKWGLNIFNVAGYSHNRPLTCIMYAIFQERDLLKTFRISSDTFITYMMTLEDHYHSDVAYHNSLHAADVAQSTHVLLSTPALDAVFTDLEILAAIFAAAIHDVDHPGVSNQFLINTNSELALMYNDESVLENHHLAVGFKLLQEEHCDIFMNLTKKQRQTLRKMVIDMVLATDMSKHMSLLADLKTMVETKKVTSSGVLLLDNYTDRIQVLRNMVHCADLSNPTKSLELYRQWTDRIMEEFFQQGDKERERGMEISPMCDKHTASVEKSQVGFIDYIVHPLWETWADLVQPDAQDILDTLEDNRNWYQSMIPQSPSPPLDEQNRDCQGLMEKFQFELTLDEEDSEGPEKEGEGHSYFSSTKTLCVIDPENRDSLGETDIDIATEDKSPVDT

Activity Note: PDE4, +:
Cc1cnc(N(C)c2ccc3c(c2)COB3O)nc1OC1CCCCC1 [drawing 151, 5-((4-(cyclohexyloxy)-5-methylpyrimidin-2-yl)(methyl)amino)benzo[c][1,2]oxaborol-1(3H)-ol]
CCC(CC)Nc1nc(Nc2ccc3c(c2)COB3O)ncc1C [5-((5-methyl-4-(pentan-3-ylamino)pyrimidin-2-yl)amino)benzo[c][1,2]oxaborol-1(3H)-ol]
Cc1cnc(Nc2ccc3c(c2)COB3O)nc1NC1CCCCC1 [5-((4-(cyclohexylamino)-5-methylpyrimidin-2-yl)amino)benzo[c][1,2]oxaborol-1(3H)-ol]
CCCNc1nc(Nc2ccc3c(c2)COB3O)ncc1F [5-((5-fluoro-4-(propylamino)pyrimidin-2-yl)amino)benzo[c][1,2]oxaborol-1(3H)-ol]
CCCNc1nc(Nc2ccc3c(c2)COB3O)ncc1Cl [5-((5-chloro-4-(propylamino)pyrimidin-2-yl)amino)benzo[c][1,2]oxaborol-1(3H)-ol]
CS(=O)(=O)c1nc(Nc2ccc3c(c2)COB3O)ncc1Cl [5-((5-chloro-4-(methylsulfonyl)pyrimidin-2-yl)amino)benzo[c][1,2]oxaborol-1(3H)-ol]
CCC(CCOC)Nc1nc(Nc2ccc3c(c2)COB3O)ncc1C(F)(F)F (stereo not drawn) [5-((4-((1-methoxypentan-3-yl)amino)-5-(trifluoromethyl)pyrimidin-2-yl)amino)benzo[c][1,2]oxaborol-1(3H)-ol]
CCC(CC)Nc1ccnc(Nc2ccc3c(c2)COB3O)n1 [5-((4-(pentan-3-ylamino)pyrimidin-2-yl)amino)benzo[c][1,2]oxaborol-1(3H)-ol]
OB1OCc2cc(Nc3ncc(C(F)(F)F)c(NC4CCCC4)n3)ccc21 [5-((4-(cyclopentylamino)-5-(trifluoromethyl)pyrimidin-2-yl)amino)benzo[c][1,2]oxaborol-1(3H)-ol]
OB1OCc2cc(Nc3nccc(NC4CCCCC4)n3)ccc21 [5-((4-(cyclohexylamino)pyrimidin-2-yl)amino)benzo[c][1,2]oxaborol-1(3H)-ol]
OB1OCc2cc(Nc3nccc(NC4CCCC4)n3)ccc21 [5-((4-(cyclopentylamino)pyrimidin-2-yl)amino)benzo[c][1,2]oxaborol-1(3H)-ol]
CCC(CC)Nc1nc(Nc2ccc3c(c2)COB3O)ncc1Cl [5-((5-chloro-4-(pentan-3-ylamino)pyrimidin-2-yl)amino)benzo[c][1,2]oxaborol-1(3H)-ol]
Cc1cnc(Nc2ccc3c(c2)COB3O)nc1NC(C)c1ccccc1 (stereo not drawn) [5-((5-methyl-4-((1-phenylethyl)amino)pyrimidin-2-yl)amino)benzo[c][1,2]oxaborol-1(3H)-ol]
Cc1cnc(Nc2ccc3c(c2)COB3O)nc1NC1CC1 [5-((4-(cyclopropylamino)-5-methylpyrimidin-2-yl)amino)benzo[c][1,2]oxaborol-1(3H)-ol]
OB1OCc2cc(Nc3ncc(F)c(NCCC4CC4)n3)ccc21 [5-((4-((2-cyclopropylethyl)amino)-5-fluoropyrimidin-2-yl)amino)benzo[c][1,2]oxaborol-1(3H)-ol]
OB1OCc2cc(Nc3ncc(Cl)c(NC4CCCCC4)n3)ccc21 [5-((5-chloro-4-(cyclohexylamino)pyrimidin-2-yl)amino)benzo[c][1,2]oxaborol-1(3H)-ol]
CCC(C)Nc1nc(Nc2ccc3c(c2)COB3O)ncc1C(F)(F)F (stereo not drawn) [5-((4-(sec-butylamino)-5-(trifluoromethyl)pyrimidin-2-yl)amino)benzo[c][1,2]oxaborol-1(3H)-ol]
Cc1cnc(Nc2ccc3c(c2)COB3O)nc1NC1CCCC1 [5-((4-(cyclopentylamino)-5-methylpyrimidin-2-yl)amino)benzo[c][1,2]oxaborol-1(3H)-ol]
CCCC(CC)Nc1nc(Nc2ccc3c(c2)COB3O)ncc1C(F)(F)F (stereo not drawn) [5-((4-(hexan-3-ylamino)-5-(trifluoromethyl)pyrimidin-2-yl)amino)benzo[c][1,2]oxaborol-1(3H)-ol]
Cc1cnc(Nc2cc(F)c3c(c2)COB3O)nc1Nc1ccccc1 [7-fluoro-5-((5-methyl-4-(phenylamino)pyrimidin-2-yl)amino)benzo[c][1,2]oxaborol-1(3H)-ol]
CCC(CO)Nc1nc(Nc2ccc3c(c2)COB3O)ncc1C (stereo not drawn) [5-((4-((1-hydroxybutan-2-yl)amino)-5-methylpyrimidin-2-yl)amino)benzo[c][1,2]oxaborol-1(3H)-ol]
CCC(CC)Nc1nc(Nc2ccc3c(c2)COB3O)ncc1F [5-((5-fluoro-4-(pentan-3-ylamino)pyrimidin-2-yl)amino)benzo[c][1,2]oxaborol-1(3H)-ol]
CCCNc1nc(Nc2ccc3c(c2)COB3O)ncc1C [5-((5-methyl-4-(propylamino)pyrimidin-2-yl)amino)benzo[c][1,2]oxaborol-1(3H)-ol]
OB1OCc2cc(Nc3ncc(Cl)c(NCc4ccccc4)n3)ccc21 [5-((4-(benzylamino)-5-chloropyrimidin-2-yl)amino)benzo[c][1,2]oxaborol-1(3H)-ol]
Cc1cnc(Nc2ccc3c(c2)COB3O)nc1Nc1cccc(CO)c1 [5-((4-((3-(hydroxymethyl)phenyl)amino)-5-methylpyrimidin-2-yl)amino)benzo[c][1,2]oxaborol-1(3H)-ol]
Cc1cnc(Nc2ccc3c(c2)COB3O)nc1NCc1ccc(F)cc1 [5-((4-((4-fluorobenzyl)amino)-5-methylpyrimidin-2-yl)amino)benzo[c][1,2]oxaborol-1(3H)-ol]
CCC(C)Nc1nc(Nc2ccc3c(c2)COB3O)ncc1Cl (stereo not drawn) [5-((4-(sec-butylamino)-5-chloropyrimidin-2-yl)amino)benzo[c][1,2]oxaborol-1(3H)-ol]
CCC(CC)Oc1nc(Nc2ccc3c(c2)COB3O)ncc1C [5-((5-methyl-4-(pentan-3-yloxy)pyrimidin-2-yl)amino)benzo[c][1,2]oxaborol-1(3H)-ol]
Cc1cnc(Nc2ccc3c(c2)COB3O)nc1NC1CCCC(C)C1 (stereo not drawn) [5-((5-methyl-4-((3-methylcyclohexyl)amino)pyrimidin-2-yl)amino)benzo[c][1,2]oxaborol-1(3H)-ol]
CCC(C)Nc1nc(Nc2ccc3c(c2)COB3O)ncc1F (stereo not drawn) [5-((4-(sec-butylamino)-5-fluoropyrimidin-2-yl)amino)benzo[c][1,2]oxaborol-1(3H)-ol]
CCCC(CC)Nc1nc(Nc2ccc3c(c2)COB3O)ncc1C (stereo not drawn) [5-((4-(hexan-3-ylamino)-5-methylpyrimidin-2-yl)amino)benzo[c][1,2]oxaborol-1(3H)-ol]
Cc1cnc(Nc2ccc3c(c2)COB3O)nc1Nc1ccccc1 [5-((5-methyl-4-(phenylamino)pyrimidin-2-yl)amino)benzo[c][1,2]oxaborol-1(3H)-ol]
Cc1cnc(Nc2ccc3c(c2)COB3O)nc1NCc1cccc(F)c1 [5-((4-((3-fluorobenzyl)amino)-5-methylpyrimidin-2-yl)amino)benzo[c][1,2]oxaborol-1(3H)-ol]

— patent US12358932B2, “Chemical compounds” (BORAH, INC., priority 2019, dated 2025)
